In patent publication US20090111828A1, “L-ALANINE DERIVATIVES” (ASTRAZENECA AB, priority 2005, published 2009):

Columns and labels:
α5β1 integrin [1] = target: T1, α5β1 integrin (Homo sapiens, UniProt P05556+P08648); experiment: In vitro cell adhesion assay: α5β1 integrin mediated adhesion of K562 cells to fibronectin fragment Fn9-10; format: cell-based; set-up: α5β1 integrin mediated adhesion of K562 cells; host or cells: K562 human erythroleukaemia cells; conditions: K562 cells on Fn9-10 coated plates; 0.2 mM MnCl; read-out: b) Cell Adhesion Assay
T1 sequence (P08648 42-894 limits assumed): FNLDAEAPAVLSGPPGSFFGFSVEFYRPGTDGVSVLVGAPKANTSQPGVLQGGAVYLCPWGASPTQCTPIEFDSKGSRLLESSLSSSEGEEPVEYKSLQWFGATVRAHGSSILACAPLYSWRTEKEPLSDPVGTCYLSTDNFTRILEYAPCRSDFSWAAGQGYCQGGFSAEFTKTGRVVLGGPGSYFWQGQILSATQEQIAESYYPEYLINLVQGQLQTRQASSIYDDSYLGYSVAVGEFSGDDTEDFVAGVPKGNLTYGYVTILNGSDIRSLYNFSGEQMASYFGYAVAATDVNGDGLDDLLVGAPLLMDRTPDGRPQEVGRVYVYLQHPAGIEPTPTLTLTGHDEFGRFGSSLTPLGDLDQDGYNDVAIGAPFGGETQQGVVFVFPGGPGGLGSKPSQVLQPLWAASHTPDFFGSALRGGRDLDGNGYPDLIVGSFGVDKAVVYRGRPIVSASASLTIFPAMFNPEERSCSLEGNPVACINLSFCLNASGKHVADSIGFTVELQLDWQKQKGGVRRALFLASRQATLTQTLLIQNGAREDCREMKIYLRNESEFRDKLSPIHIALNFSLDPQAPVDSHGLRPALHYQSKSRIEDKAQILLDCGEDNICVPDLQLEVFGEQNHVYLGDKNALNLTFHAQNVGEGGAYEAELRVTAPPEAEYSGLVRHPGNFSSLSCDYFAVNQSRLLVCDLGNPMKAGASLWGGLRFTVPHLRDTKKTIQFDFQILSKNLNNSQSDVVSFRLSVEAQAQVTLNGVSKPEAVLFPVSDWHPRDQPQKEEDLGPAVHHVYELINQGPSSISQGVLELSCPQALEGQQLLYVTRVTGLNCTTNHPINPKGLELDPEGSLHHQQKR
T1 sequence (P08648 895-1049 partner limits assumed): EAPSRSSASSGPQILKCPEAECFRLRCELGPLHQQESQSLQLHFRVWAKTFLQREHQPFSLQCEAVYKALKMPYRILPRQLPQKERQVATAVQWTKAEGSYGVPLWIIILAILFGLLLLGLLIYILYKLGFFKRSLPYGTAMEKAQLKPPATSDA
T1 sequence (P05556 21-798): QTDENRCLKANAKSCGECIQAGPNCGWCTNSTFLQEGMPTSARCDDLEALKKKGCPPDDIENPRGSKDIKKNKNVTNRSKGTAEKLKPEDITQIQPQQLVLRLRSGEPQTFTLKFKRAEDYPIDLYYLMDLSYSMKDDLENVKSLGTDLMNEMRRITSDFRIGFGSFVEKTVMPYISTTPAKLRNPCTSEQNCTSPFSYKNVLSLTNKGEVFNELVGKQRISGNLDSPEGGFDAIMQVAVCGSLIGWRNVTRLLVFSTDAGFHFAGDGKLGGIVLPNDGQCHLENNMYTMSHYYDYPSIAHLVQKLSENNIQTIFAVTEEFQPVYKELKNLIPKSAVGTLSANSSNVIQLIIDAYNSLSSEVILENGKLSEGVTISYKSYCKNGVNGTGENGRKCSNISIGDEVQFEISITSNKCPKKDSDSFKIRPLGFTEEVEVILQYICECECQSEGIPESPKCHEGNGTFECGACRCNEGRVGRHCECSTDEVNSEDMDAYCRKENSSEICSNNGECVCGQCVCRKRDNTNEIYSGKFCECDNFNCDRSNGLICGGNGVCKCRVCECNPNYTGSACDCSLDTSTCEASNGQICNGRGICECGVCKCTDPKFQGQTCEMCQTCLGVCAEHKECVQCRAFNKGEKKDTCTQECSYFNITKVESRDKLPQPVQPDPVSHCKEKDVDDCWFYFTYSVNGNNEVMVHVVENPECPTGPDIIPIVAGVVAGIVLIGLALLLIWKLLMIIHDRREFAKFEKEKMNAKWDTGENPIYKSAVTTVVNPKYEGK
Excerpt: The assay determined the ability of compounds to inhibit the α5β1 integrin mediated adhesion of K562 cells to the ligand, a fragment of human fibronectin. The human K562 erythroleukaemia cell line (LGC Promochem, Teddington, Middlesex, UK, Catalogue No. CCL-243) was routinely maintained in RPMI 1640 medium (Sigma-Aldrich Company Ltd, Gillingham, Dorset SP8 4XT, Catalogue No. R0883) containing 10% heat-inactivated foetal calf serum (PAA lab GmbH, Pasching, Austria Catalogue No. PAA-A15-043) and 1% glutamax-1 (Invitrogen Ltd. Paisley, UK Catalogue No. 35050-038) at 37° C. with 5% CO2 at densities between 1×10^5 and 1×10^6 cells/ml.
A DNA fragment encoding the domains 9-10 (amino-acids 1325-1509) of human fibronectin (Swiss-Prot Acession No. P02751) was isolated from cDNA libraries using standard molecular biology and PCR cloning techniques. The cDNA fragment was sub-cloned into a pT7#3.3 expression vector containing a GST-epitope tag (developed at AstraZeneca; Bagnall et al., Protein Expression and Purification, 2003, 27: 1-11) and the fragment termed Fn9-10. Following expression in E. coli, the expressed protein was purified using the GST-tag using standard purification techniques.
For adhesion assay, a 96-well flat bottomed plate (Greiner Bio one ltd., Gloucester GL10 3SX Catalogue No. 655101) was coated overnight at 4° C. with 100 μl of 20 μg/ml Fn9-10 ligand in Dulbecco's PBS (Gibco#14190-94). The plate was then washed twice with 200 μl of PBS and blocked with 100 μl of 3% BSA (SigmaA7888) in PBS for 1 hour at 37° C. The plates were then washed again 3 times with 200 μl of PBS and left empty.
Test compounds were prepared as 10 mM stock solutions in DMSO (Sigma-Aldrich Company Ltd, Gillingham, Dorset SP8 4XT Catalogue No. 154938) and serially diluted with HBSS (Hanks Buffered Salt solution (Gibco Catalogue No. 14170-088)/2% DMSO to give a range of test concentrations at twice required final concentration. Aliquots (50 μl) of each compound dilution were placed into each well of the Fn9-10 coated plates. Each plate also contained control wells: maximum adhesion signal was created using wells containing 50 μl HBSS/2% DMSO and minimum signal corresponding to no adhesion was created using wells containing 50 μl HBSS/2% DMSO/20 mM EDTA (Sigma Catalogue No. E7889).
The K562 cells were cultured to ˜1×10^6 cells/ml and each culture suspension pooled. Cells were centrifuged at 1200 rpm for 2 mins and the pellets washed with HBSS followed by HBSS/50 mM HEPES (Sigma Catalogue No. H0887). Cell pellets were pooled and resuspended in HBSS/0.4 mM manganese chloride/50 mM HEPES (MnCl; Sigma Catalogue No. M1787) to give a final concentration of 4×10^6 cells/ml.
The assay was initiated by the addition of 50 μl of cell suspension into each coated well (200,000 cells/well), thus resulting in final desired compound concentration and a final MnCl concentration of 0.2 mM. The plates were incubated for 45 minutes at 37° C. 5% CO2. After this time, the solution was flicked off as waste and the remaining cell layer carefully washed twice with 200 μl of PBS and then fixed with 200 μl of 100% ethanol for 30 minutes.
After fixation, the ethanol was flicked off to waste and 100 μl of 0.1% Crystal violet stain was added to each well and incubated at ambient temperature for 15 minutes. Excess stain was removed by rinsing ˜3 times under cold slow running water. The plates were blotted over tissue then solubilised by adding 50 μl of 1% Triton X100 (Sigma Catalogue No. T9284) and shaking at 500 rpm for 30 mins on plate shaker. Finally, 100 μl of deionised water was added to each well and the absorbance was determined at 590 nm on a spectrophotometer. The minimum value was subtracted from all values and the absorbance signal was plotted against compound concentration to generate IC50 data.

α5β1 integrin [2] = target: T1, α5β1 integrin; experiment: In vitro binding assay: inhibition of binding of α5β1 integrin to fibronectin fragment Fn9-10 (Origen electrochemiluminescence); conditions: human a5b1 purified from placenta; biotinylated Fn9-10 ligand
Description: The assay determined the ability of compounds to inhibit binding of a5 μl integrin to a cognate ligand, a fragment of human fibronectin. The assay used Origen technology (IGEN International) to measure the compound activity. Briefly, (α5β1 integrin was coated onto epoxy-paramagnetic beads (Dynal Biotech UK, Bromborough, Wirral, CH62 3QL, UK, Catalogue No 143.02) and biotinylated-fibronectin ligand was coupled to strepatividin labelled BV-Tag-NHS-Ester (BioVeris Corporation, Witney, Oxfordshire, OX28 4GE, UK, Catalogue No JSF396). The ruthenium-labelled BV-Tag emits a electrochemiluminescence signal upon stimulation which is detected by the Origen reader. Thus, interaction of integrin and ligand causes association of bead and tag and the resulting electrochemiluminescence signal reflects the level of integrin interaction with fibronectin.
12 μg of human a5 μl purified from placenta (Chemicon, Chandlers Ford, Hampshire, SO53 4NF, UK, Catalogue No CC1055-K) was coated onto surface-activated 3 mg of epoxy-paramagnetic beads in PBS and 1M ammonium sulfate following manufacturers instructions at 4° C. for 24 hours. Coated beads were then washed into Assay Buffer (25 mM Hepes, 150 mM NaCl, 1 mM MgCl, 1 mM MnCl, 0.1% Tween, pH7.4) to give a final concentration of 20 μg of α5β1/ml. Immediately prior to the assay, the beads were further diluted ×40 fold in Assay Buffer to give a concentration of 0.5 μg α5β1/ml.
A DNA fragment encoding the domains 9-10 (amino-acids 1325-1509) of human fibronectin (Swiss-Prot Acession No. P02751) was isolated from cDNA libraries using standard molecular biology and PCR cloning techniques. The cDNA fragment was sub-cloned into a pT73.3 expression vector containing a GST-epitope tag (developed at AstraZeneca; Bagnall et al., Protein Expression and Purification, 2003, 27: 1-11). Following expression in E. coli, the expressed protein, termed Fn9-10, was purified using the GST-tag using standard purification techniques. The recombinant Fn9-10 was subsequently biotinylated using a EZ-link Sulfo-NHS-LC-Biotinylation kit (Perbio Science UK Ltd., Cramlington, Northumberland, NE23 1WA, UK, Catalogue No. 21335) and made to give a final concentration of approximately 1 mg/ml. BV-Tag-NHS-Ester was labelled with streptavidin by incubation at room temperature following manufacturers instructions and buffer-exchanged into PBS to give a concentration of 0.5 mg/ml. […]
For the assay, […] of a5b1-bead suspension and 40 μl of the Fn9-10/BV-Tag preincubated solution were added to each well containing 20 μl of compound or control solution. Assay plates were then incubated at room temperature for a minimum of 6 hours before being analysed on the Origen plate reader. […]

IC50 (α5β1 integrin [1]) [µM] | IC50 (α5β1 integrin [2]) [µM] | SMILES
≥ 100 | – | O=C(N[C@@H](Cc1ccc(N2CCN(S(=O)(=O)c3ccccc3)CC2)cn1)C(=O)O)c1c(Cl)cccc1Cl [N-(2,6-dichlorobenzoyl)-3-{5-[4-(phenylsulfonyl)piperazin-1-yl]pyridin-2-yl}-L-alanine]
13.2 | 6 | O=C(N[C@@H](Cc1ccc(C2=CCN(Cc3ccc(F)cc3)CC2)cn1)C(=O)O)c1c(Cl)cccc1Cl
70.5 | 24.7 | CS(=O)(=O)N1CC=C(c2ccc(C[C@H](NC(=O)c3c(Cl)cccc3Cl)C(=O)O)nc2)CC1
≥ 100 | – | CC(=O)NCC(=O)N1CC=C(c2ccc(C[C@H](NC(=O)c3c(Cl)cccc3Cl)C(=O)O)nc2)CC1 [3-[1′-(N-acetylglycyl)-1′,2′,3′,6′-tetrahydro-3,4′-bipyridin-6-yl]-N-(2,6-dichlorobenzoyl)-L-alanine]
7 | 13.9 | CCCS(=O)(=O)N1CC=C(c2ccc(C[C@H](NC(=O)c3c(Cl)cccc3Cl)C(=O)O)nc2)CC1
48 | 7.2 | O=C(N[C@@H](Cc1ccc(C2=CCN(C(=O)c3cccc(F)c3)CC2)cn1)C(=O)O)c1c(Cl)cccc1Cl
